Reference: paper PMC4658182, “The Synthetic Antimicrobial Peptide 19-2.5 Interacts with Heparanase and Heparan Sulfate in Murine and Human Sepsis” (PLoS ONE, 2015)

Experiments:
[1] = test system: heparanase; assay: Relative heparanase mRNA expression in organs (qPCR), CLP septic mice; type: in vivo, murine; conditions: 24 h after CLP
Experimental: (§1) The murine model of polymicrobial sepsis was divided into three steps as described before. Briefly, in a first step 12 NMRI mice underwent a catheterization procedure under general (isoflurane 1% to 2% in oxygen/air mix with a FiO2 of 0.3) and local (0.2 ml lidocaine 2%) anesthesia. A central vein catheter (PE-tube, self-made) was implanted in the jugular vein. After further local infiltration with lidocaine, the neck was closed by single suture. To prevent hypothermia all animals were kept on a heating pad throughout the surgical procedure. Mice were transferred back into the cage to rest for 48h. The i.v.-line was connected to the syringe pump at a rate of 100 μl/h (NaCl 0.9%).
In a second step, general and local anesthesia for cecal ligature and puncture (CLP) was performed as described above. The animal were transferred to the cage and reconnected with the i.v.-line. Depending on the group, peptide 19–2.5 infusion (20 μg/ml, 100 μl/h) or NaCl 0.9% infusion (100 μl/h) was started.
Finally, in a third step all animals were killed 24 h after CLP. Therefore, the animals were anesthetized as described above, brought to a prone position and the abdomen and thorax were opened. Blood was sampled in pre-citrated syringes. Directly after killing the animal under general anesthesia by cervical dislocation heart, liver, lung, kidney and spleen were snap-frozen in liquid […] until further procedures.
As described before, total RNA was extracted from snap-frozen tissue (RNeasy Mini Kit, Qiagen, Hilden, Germany) and reverse transcribed to cDNA (Quanti Tec, Rev Transcription Kit, Qiagen, Hilden, Germany). cDNA was analyzed by quantitative real-time PCR performed with Power SYBR Green PCR Master Mix on a StepOnePlus (all Applied Biosystems, Foster City, CA, USA) using a mouse specific primer (biomers, Ulm, Germany) for heparanase 5’-[…]-3’ (for) and 5’-[…]-3’ (rev). Beta-actin was used as an endogenous normalization control: 5’-[…]-3’ (for), 5’-CGG ATGTCAACGTCACACTT-3’ (rev). […]
All data are given as mean ± standard deviation (SD). As described recently, the PCR-derived mRNA expressions were analyzed using a relative expression software tool (REST, (http://www.gene-quantification.de/rest.html, rest-mcs-beta-9august 2006) performing a randomization test. This tool avoids assumptions on distributions and applies a pair wise fixed reallocation randomization test, which reallocates control and sample groups (= pair wise fixed reallocation). The expression ratios are calculated on the basis of the mean crossing point (CP) values for reference and target genes. We used a multiple t-test with Holm-Šídák correction when comparing differences between groups. […]

[2] = test system: pro-inflammatory cytokines; CD14; conditions: CLP-mice, cited from earlier work
Text: Several studies report an up to 10-fold increase of heparanase expression after stimulation with pro-inflammatory cytokines. […] Accordingly, we detected organ-specific differences of heparanase levels that m ...

[3] = Circulating HS-fragments in plasma (ELISA), CLP septic mice; type: in vivo, murine; conditions: CLP-mice (NMRI), 24 h after CLP, peptide i.v. infusion 20 μg/ml, 100 μl/h vs NaCl 0.9%, n = 6 per group, Fig 4, ***p < 0.0001
Experimental: Levels of circulating HS-fragments in murine plasma were measured using a commercial ELISA kit (No.: E0623Ge, AMS Biotechnology, Oxon, United Kingdom) according to the manufacturer’s instructions. Circulating HS-fragments in plasma were defined by the sum of the HS derived disaccharides obtained after enzymatic cleavage by heparanase. Due to the ELISA´s detection range of 4.69 ng/ml– 300 ng/ml samples were diluted 1:30 in physiological saline (0.9%). The sensitivity of the ELISA is 1.17ng/ml.
as §1
In a second step, general and local anesthesia for cecal ligature and puncture (CLP) was performed as described above. The animal were transferred to the cage and reconnected with the i.v.-line. […]

[4] = test system: heparanase; assay: Isothermal titration calorimetry, binding to heparanase; conditions: ITC, 37°C
Experimental: Isothermal titration calorimetry (ITC) experiments were performed as previously described. Briefly, the binding of peptide 19–2.5 to heparanase or HS-fragments was recorded by measuring the enthalpy change of the reaction at 37°C. For this, a total of 100 μg/ml heparanase (R&D Systems Europe Ltd., Abingdon, United Kingdom) and 200 μg/ml HS-fragments (H7640 Sigma-Aldrich, St. Louis, MO, USA) were dispersed into the calorimetric cell, and 2 mM peptide 19–2.5 was titrated to this dispersion stepwise in 3 μl portions. After exploring experiments, the concentration of HS was 100 μg/ml titrated with 1.5 μl of peptide 19–2.5 (2 mM) 20 times at 37°C.
Fig 5 Isothermal titration calorimetry (ITC). For the ITC experiments, 2 mM peptide 19–2.5 was titrated to this dispersion stepwise in 3 μl portions into (A) 200 μg/ml heparan sulfate-fragments (HS) and (B) 100 μg/ml heparanase (Hep). In each titration, the resulting heat signals P were recorded (peak downwards are exothermic, peaks upwards endothermic reactions) against time (min) and presented in the top parts of Fig 5A and 5B. The integrated enthalpy changes ΔH versus [peptide]:[HS-fragments] (A) and [peptide]:[heparanase] (B) concentration ratios of the single titrations are illustrated in the bottom parts of Fig 5A and 5B.

[5] = test system: murine cells; conditions: cited from earlier work
Text: The synthetic antimicrobial peptide 19–2.5 belongs to the class of synthetic anti-lipopolysaccharide peptides (SALP = synthetic anti-LPS peptides). […] Thus, we investigated the impact of peptide 19–2.5 on levels of circulating HS-fragments in vivo. […] We postulate two ways by which peptide 19–2.5 reduces levels of circulating HS-fragments in mice: […]

[6] = 2 mM peptide in 3 μl portions into 100 μg/ml heparanase, Fig 5B
[7] = heparanase (Fig 5B) compared with HS-fragments (Fig 5A)

**Q.** Which “heparanase mRNA expression under peptide treatment” value ([1]; all investigated organ tissues (heart, liver, lung, kidney, spleen), CLP-mice, 20 μg/ml, 100 μl/h i.v., Fig 2) does the source give for “peptide 19–2.5: synthetic antimicrobial peptide 19–2.5 belongs to the class of synthetic anti-lipopolysaccharide peptides (SALP = synthetic anti-LPS peptides)” here?
**A.** Its value is “decreased heparanase mRNA expression in all investigated organ tissues”.

**Q.** And the “relative heparanase mRNA expression, untreated CLP-mice vs peptide-treated” value (shortened to “relative heparanase mRNA expression”) ([1]; kidney, increase in untreated CLP-mice vs peptide 19–2.5 (20 μg/ml, 100 μl/h i.v., n = 6 per group), normalized to ß-actin, mean ± SD, Fig 2E)?
**A.** The value was 5.7±1.9 fold.

**Q.** And the “relative heparanase mRNA expression” value ([1]; lung, liver, spleen, heart and kidney, result in words, 20 μg/ml, 100 μl/h i.v., n = 6 per group, Fig 2A–2E, **p < 0.01, ***p < 0.0001)?
**A.** The value was “significantly higher in untreated CLP-mice compared to mice treated with peptide 19–2.5”.

**Q.** What about the “relative heparanase mRNA expression” value ([1]; lung, increase in untreated CLP-mice vs peptide 19–2.5 (20 μg/ml, 100 μl/h i.v., n = 6 per group), normalized to ß-actin, mean ± SD, Fig 2A) of the same substance?
**A.** Its value is 2.2±2.2 fold.

**Q.** What about the “mRNA expression of CD14” value ([2]; differences between organs) of the same substance?
**A.** The value was “decreases mRNA expression of CD14”.

**Q.** And the “levels of pro-inflammatory cytokines” value [2]?
**A.** Its value is “decreases levels of pro-inflammatory cytokines in CLP-mice”.

**Q.** What about the “levels of circulating HS-fragments in plasma vs untreated control” value [3] of the same substance?
**A.** The value was “significantly decreased in CLP-mice treated with peptide 19–2.5 compared to untreated control animals”.

**Q.** What about the “enthalpy change (ΔH) at the beginning of the titration” value [4, 6] of the same substance?
**A.** The value was “approximately −25 kJ/mol”.

**Q.** And the “heat of reaction on titration to heparanase” value [4, 6]?
**A.** The value was “exothermic reaction”.

**Q.** And the “ΔH value at high peptide concentrations” value [4, 6]?
**A.** Its value is “around 12 kJ/mole”.

**Q.** And the “binding constant for heparanase” value ([4]; 2 mM peptide into 100 μg/ml heparanase, Fig 5B)?
**A.** Its value is “does not allow calculating a binding constant”.

**Q.** What about the “saturation character of ΔH values” ([4]; 2 mM peptide into 100 μg/ml heparanase, no sigmoidal curve, Fig 5B) of the same substance?
**A.** The value was “do not have a saturation character”.

**Q.** And the “peptide concentrations at which the processes take place vs HS-fragments” value [4, 7]?
**A.** Its value is “orders of magnitude higher than those for the interaction with HS-fragments”.

**Q.** What about the “ΔH values at the beginning of the titration vs HS-fragments” value [4, 7] of the same substance?
**A.** Its value is “much lower than those for the HS-fragments titration”.

**Q.** What about the “inflammatory response in murine cells stimulated with HS-fragments” value ([5]; stimulated with HS-fragments in vitro) of the same substance?
**A.** The value was “able to decrease the inflammatory response in murine cells stimulated with HS-fragments in vitro”.

**Q.** And the “inflammatory response in murine cells stimulated with PAMPs and DAMPs” value ([5]; stimulated with both PAMPs and DAMPs)?
**A.** The value was “able to decrease the inflammatory response in murine cells stimulated with both PAMPs and DAMPs”.
